Reference: patent US10093684B2, “Substituted imidazo[1,2-a]pyrazines as Syk inhibitors” (Gilead Connecticut, Inc., priority 2008, dated 2018)

- melting point: > 250 °C
Compound: CC(C)n1cc(Nc2nc(-c3ccc4cn[nH]c4c3)cn3ccnc23)cn1 [Compound 5, 6-(1H-indazol-6-yl)-N-(1-isopropyl-1H-pyrazol-4-yl)imidazo[1,2-a]pyrazin-8-amine]
